Here are results for 16 compounds from PMC6300282, “Sulphamethazine derivatives as immunomodulating agents: New therapeutic strategies for inflammatory diseases” (PLoS ONE, 2018).

For series [1], the system named is Bacillus subtilis (ATCC 6633). The experiment in a line: Microplate Alamar Blue Assay, Bacillus subtilis. It is filed as cell-based. As to the method:
(§1) The anti-bacterial activity of synthesized compound were evaluated by the Microplate Alamar Blue Assay. Staphylococcus aureus (ATCC 25923), Pseudomonas aeruginosa(POA 286), Salmonella typhi (ATCC 14028), Bacillus subtilis ATCC 6633) and Escherichia coli (ATCC 12022) were used in this study as a standard bacterial strains and they were obtained from microbial bank of PCMD, International Center for Chemical and Biological Sciences, University of Karachi, Karachi-75270, Pakistan. The bacterial colonies grown in Trypton Soya Agar (TSA) (Oxoid Limited, UK) were inoculated in Mueller Hinton Broth (MHB) (Oxoid Limited, UK) and incubated overnight at 37 °C. Fully grown bacterial cultures were then diluted to adjust with 0.5 McFarland Turbidity Index (equivalent to 1.5 × 10^8 CFU/mL). Stock solutions (4 mg/mL) of different test compounds were prepared in DMSO and 10μL each of these stock solutions were placed in well of flat bottom, polystyrene, sterile 96-wells plate except the positive control wells (media + bacteria). This gives 200μg/mL concentrations of compounds in final 200 μL solution. Each compound was run in triplicates. Finally, bacterial suspension (5 x 10^6 CFU/mL) was added in each well. Plates were sealed by parafilm and incubated at 37 °C for 18–22 hrs. Next day, 20 μL of 0.02% resazurin sodium salt dye (Chem-Impex-Int’LInc) was added in each well and incubated in shaking incubator at 80 rpm, 37 °C for 2–3 hrs. The color change from blue to reddish pink indicates the growth of bacteria. For quantitative analysis, plates were read at 570 nm and 600 nm in Multiskan GOmicroplate spectrophotometer, (Thermo Scientific, USA). The % inhibition of bacterial growth was calculated using below mentioned formula.
(§2) For the calculation of the % difference in reduction between treated and control cells in cytotoxicity/proliferation assays: =(εOX)λ2Aλ1-(εOX)λ1Aλ2oftestagent/(εOX)λ2A°λ1-(εOX)λ1A°λ2ofpositivegrowthcontrol×100

Series [2] relates to Salmonella typhi (ATCC 14028). The experiment in a line: Microplate Alamar Blue Assay, Salmonella typhi. The settings on record: Salmonella enterica; 200 μg/mL; NI = No inhibition; read-out: Percentage (%) Inhibition, Slamonella typhi. The format is cell-based. Here is the method: as §1, §2
Series [3] in a line: MTT cytotoxicity assay. The format is cell-based, mouse. The conditions noted are these: mouse; MTT, 48 hours; read-out: Cytotoxicity NIH-3T3 cell line (IC50). As to the method: The cytotoxicity was recorded as concentration causing 50% growth inhibition (IC50).
In series [4] the test system is Pseudomonas aeruginosa (POA 286). Description: Microplate Alamar Blue Assay, Pseudomonas aeruginosa. It is filed as cell-based. The conditions noted are these: Pseudomonas aeruginosa, read-out: Percentage (%) Inhibition, Pseudomonas aerugenosa. Here is the method: as §1, §2
(In general: Alamar Blue is a resazurin reagent that responds to reducing activity.)

Series [5] deals with Escherichia coli (ATCC 12022). Description: Microplate Alamar Blue Assay, Escherichia coli. It is filed as cell-based. Here is the method: as §1, §2
Series [6] deals with Staphylococcus aureus (ATCC 25923). The experiment in a line: Microplate Alamar Blue Assay, Staphylococcus aureus. The settings on record: Staphylococcus aureus. The format is cell-based. Here is the method: as §1, §2
[7] abbreviates: ATCC6633, 200 μg/mL, NI = No inhibition, read-out: Percentage (%) Inhibition, Bacillus subtilis.
The mark [8] stands for this setting: ATCC12022, 200 μg/mL, NI = No inhibition, read-out: Percentage (%) Inhibition, Escherichia coli.
[9] abbreviates: ATCC25923, 200 μg/mL, NI = No inhibition, read-out: Percentage (%) Inhibition, Staphylococcus aureus.

Like-named read-outs stand apart in the source and are kept apart here.

For the compound `Cc1cc(C)nc(NS(=O)(=O)c2ccc(NC(=O)c3cccc(C(F)(F)F)c3F)cc2)n1` [Compound 14, N-(4-(N-(4,6-dimethylpyrimidin-2-yl)sulfamoyl)phenyl)-2-fluoro-3-(trifluoromethyl)benzamide], the inhibition at 200 µg/mL in series [1] (setting [7]) is under 0%; in series [2], 25.4%; in series [4] (200 μg/mL, NI = No inhibition) it was 1.04%; in series [5] (setting [8]), under 0%; in series [6] (setting [9]), 27.4%. Besides, the IC50 in series [3] was over 30 µM.

With `Cc1cc(C)nc(NS(=O)(=O)c2ccc(NC(=O)c3cc(Cl)ccc3Cl)cc2)n1` [Compound 23, 2,5-dichloro-N-(4-(N-(4,6-dimethylpyrimidin-2-yl)sulfamoyl)phenyl)benzamide], the inhibition at 200 µg/mL was under 0% in series [1] (setting [7]); under 0% in series [2]; 1.54% in series [4] (200 μg/mL, NI = No inhibition); under 0% in series [5] (setting [8]); 5.76% in series [6] (setting [9]). Besides, the IC50 in series [3] is over 30 µM.

For the compound `Cc1cc(C)nc(NS(=O)(=O)c2ccc(NC(=O)c3cc([N+](=O)[O-])cc([N+](=O)[O-])c3)cc2)n1` [Compound 26, N-(4-(N-(4,6-dimethylpyrimidin-2-yl)sulfamoyl)phenyl)-3,5-dinitrobenzamide], the inhibition at 200 µg/mL in series [1] (ATCC6633, read-out: Percentage (%) Inhibition, Bacillus subtilis) is under 0%; in series [2], under 0%; in series [4], under 0%; in series [5] (ATCC12022, read-out: Percentage (%) Inhibition, Escherichia coli), under 0%; in series [6] (ATCC25923, read-out: Percentage (%) Inhibition, Staphylococcus aureus), 34.7%. The IC50 at 48 h in series [3] was over 30 µM.

`CC1COc2c(N3CCN(C)CC3)c(F)cc3c(=O)c(C(=O)O)cn1c23` (stereo not shown) [Ofloxacin, reference compound]: the inhibition at 200 µg/mL in series [1] (setting [7]) is 93.8%; in series [2] it was 89.8%; in series [4] (200 μg/mL, NI = No inhibition) it was 94.1%; in series [5] (setting [8]), 94.4%; in series [6] (setting [9]), 94.1%.

As to `Cc1cc(C)nc(NS(=O)(=O)c2ccc(NC(=O)c3ccc([N+](=O)[O-])cc3)cc2)n1` [Compound 25, N-(4-(N-(4,6-dimethylpyrimidin-2-yl)sulfamoyl)phenyl)-4-nitrobenzamide], the inhibition at 200 µg/mL in series [1] (setting [7]) was under 0%; in series [2] it was 4.64%; in series [4] (200 μg/mL, NI = No inhibition), 6.35%; in series [5] (setting [8]), 1.21%; in series [6] (setting [9]) it was 17.5%. Also, in series [3], the IC50 is over 30 µM.

On to `COc1cc(OC)cc(C(=O)Nc2ccc(S(=O)(=O)Nc3nc(C)cc(C)n3)cc2)c1` [Compound 33, N-(4-(N-(4,6-dimethylpyrimidin-2-yl)sulfamoyl)phenyl)-3,5-dimethoxybenzamide], for which the inhibition at 200 µg/mL in series [1] (setting [7]) is under 0%; in series [2], under 0%; in series [4] (200 μg/mL, NI = No inhibition), under 0%; in series [5] (setting [8]) it was under 0%; in series [6] (setting [9]), 31.3%. In addition, the 50% inhibitory concentration (IC50) in series [3] is over 30 µM.

In the case of `Cc1cc(C)nc(NS(=O)(=O)c2ccc(NC(=O)c3ccc(Cl)cc3)cc2)n1` [Compound 22, 4-chloro-N-(4-(N-(4,6-dimethylpyrimidin-2-yl)sulfamoyl)phenyl)benzamide], the inhibition at 200 µg/mL in series [1] (setting [7]) was under 0%; in series [2], 11.6%; in series [4] (200 μg/mL, NI = No inhibition), 9.78%; in series [5] (setting [8]), under 0%; in series [6] (setting [9]) it was 44.3%. For the same compound, in series [3], the IC50 is over 30 µM.

As for `Cc1cc(C)nc(NS(=O)(=O)c2ccc(NC(=O)c3ccc(Br)cc3)cc2)n1` [Compound 29, 4-Bromo-N-(4-(N-(4,6-dimethylpyrimidin-2-yl)sulfamoyl)phenyl)benzamide], the inhibition at 200 µg/mL was under 0% in series [1] (setting [7]); 14.1% in series [2]; 15% in series [4] (200 μg/mL, NI = No inhibition); under 0% in series [5] (setting [8]); 52.3% in series [6] (setting [9]). Moreover, in series [3], the IC50 was over 30 µM.

In the case of `Cc1cc(C)nc(NS(=O)(=O)c2ccc(NC(=O)c3ccc([N+](=O)[O-])cc3Cl)cc2)n1` [Compound 27, 2-chloro-N-(4-(N-(4,6-dimethylpyrimidin-2-yl)sulfamoyl)phenyl)-4-nitrobenzamide], the inhibition at 200 µg/mL is under 0% in series [1] (setting [7]); 3.72% in series [2]; under 0% in series [4] (200 μg/mL, NI = No inhibition); under 0% in series [5] (setting [8]); 50.1% in series [6] (setting [9]). The 50% inhibitory concentration (IC50) in series [3] was over 30 µM.

Turning to `COc1cccc(C(=O)Nc2ccc(S(=O)(=O)Nc3nc(C)cc(C)n3)cc2)c1` [Compound 32, N-(4-(N-(4,6-dimethylpyrimidin-2-yl)sulfamoyl)phenyl)-3-methoxybenzamide], the inhibition at 200 µg/mL in series [1] (setting [7]) was under 0%; in series [2] it was 19%; in series [4] (200 μg/mL, NI = No inhibition), under 0%; in series [5] (setting [8]), under 0%; in series [6] (setting [9]), 32.9%. Also, the IC50 in series [3] was over 30 µM.

As for `Cc1cccc(C(=O)Nc2ccc(S(=O)(=O)Nc3nc(C)cc(C)n3)cc2)c1` [Compound 36, N-(4-(N-(4,6-dimethylpyrimidin-2-yl)sulfamoyl)phenyl)-3-methylbenzamide], the inhibition at 200 µg/mL in series [1] (setting [7]) is under 0%; in series [2], under 0%; in series [4] (200 μg/mL, NI = No inhibition), 20.5%; in series [5] (setting [8]), under 0%; in series [6] (setting [9]) it was under 0%. The IC50 in series [3] was over 30 µM.

With `Cc1cc(C)nc(NS(=O)(=O)c2ccc(NC(=O)c3cccc(I)c3)cc2)n1` [Compound 31, N-(4-(N-(4,6-dimethylpyrimidin-2-yl)sulfamoyl)phenyl)-3-iodobenzamide], the inhibition at 200 µg/mL in series [1] (setting [7]) is under 0%; in series [2], under 0%; in series [4] (200 μg/mL, NI = No inhibition), under 0%; in series [5] (setting [8]), under 0%; in series [6] (setting [9]) it was 13%. The 50% inhibitory concentration (IC50) in series [3] is over 30 µM.

Take `Cc1cc(C)nc(NS(=O)(=O)c2ccc(NC(=O)c3ccccc3C)cc2)n1` [Compound 35, N-(4-(N-(4,6-dimethylpyrimidin-2-yl)sulfamoyl)phenyl)-2-methylbenzamide]: the inhibition at 200 µg/mL in series [1] (setting [7]) was under 0%; in series [2], 0.2%; in series [4] (200 μg/mL, NI = No inhibition) it was 16.5%; in series [5] (setting [8]), under 0%; in series [6] (setting [9]) it was under 0%. The IC50 in series [3] is over 30 µM.

Consider `Cc1cc(C)nc(NS(=O)(=O)c2ccc(NC(=O)c3cccc(F)c3)cc2)n1` [Compound 16, N-(4-(N-(4,6-dimethylpyrimidin-2-yl)sulfamoyl)phenyl)-3-fluorobenzamide], for which the inhibition at 200 µg/mL was under 0% in series [1] (setting [7]); 19.4% in series [2]; under 0% in series [4] (200 μg/mL, NI = No inhibition); under 0% in series [5] (setting [8]); 47.2% in series [6] (setting [9]). The IC50 in series [3] is over 30 µM.

`Cc1cc(C)nc(NS(=O)(=O)c2ccc(NC(=O)CCc3ccccc3)cc2)n1` [Compound 37, N-(4-(N-(4,6-dimethylpyrimidin-2-yl)sulfamoyl)phenyl)-3-phenylpropanamide]: the inhibition at 200 µg/mL was under 0% in series [1] (setting [7]); under 0% in series [2]; under 0% in series [4] (200 μg/mL, NI = No inhibition); under 0% in series [5] (setting [8]); 10.2% in series [6] (setting [9]). Further, the IC50 in series [3] was over 30 µM.

Turning to `Cc1cc(C)nc(NS(=O)(=O)c2ccc(NC(=O)c3ccccc3F)cc2)n1` [Compound 17, N-(4-(N-(4,6-dimethylpyrimidin-2-yl)sulfamoyl)phenyl)-2-fluorobenzamide], the inhibition at 200 µg/mL in series [1] (setting [7]) was under 0%; in series [4] (200 μg/mL, NI = No inhibition), under 0%; in series [5] (setting [8]), under 0%; in series [6] (setting [9]) it was 24.3%. Further, the IC50 in series [3] was over 30 µM.

As usually defined, the inhibition is the relative decrease from the control value, in per cent. The IC50 is the concentration that gives 50% inhibition.
